Reference: patent publication US20180289709A1, “METHODS OF TREATING INFLAMMATION” (priority 2010, published 2018)

System: primary mouse lung fibroblasts (MLFs)
Details: 1 μM

## CC[C@@H]1C(=O)N(C)c2cnc(Nc3ccc(C(=O)NC4CCN(C)CC4)cc3OC)nc2N1C1CCCC1 [BI 2536]
  viral replication (luciferase activity in reporter cells): elevated replication
